Marks after values point to notes of the source that are not given here.
Test system: casting-induced atrophy of the tibialis anterior and medial gastrocnemius muscles
Experiment: mouse casting model of skeletal muscle atrophy
Format: in vivo
Conditions: fourteen days, casted right hind leg, male mice
Protocol: The role of the prostanoid IP receptor in vivo is investigated in the mouse casting model of skeletal muscle atrophy using the pharmacological agents carbaprostacyclin, ciprostene, beraprost and iloprost (Cayman Chemical Company, Ann Arbor, Mich.) which are selective agonists for the prostanoid IP receptor. Eight mice are used per treatment group in the study described. Following casting of the right hind leg, male mice are injected subcutaneously in the midscapular region once daily, with either carbaprostacyclin, ciprostene, beraprost, iloprost or vehicle control (phosphate buffered saline), for fourteen days at the daily delivered dose indicated. On day fourteen, the tibialis anterior and medial gastrocnemius muscles are removed and weighed to determine the degree of atrophy. Percent inhibition of atrophy is calculated using the following formula: [formula] Statistical significance of the results is determined using ANCOVA (Douglas C. Montgomery, Design and Analysis of Experiments, John Wiley and Sons, New York (2nd ed. 1984).

[1] = 0.3 mg/kg/d subcutaneously once daily
[2] = 1.0 mg/kg/d subcutaneously once daily
[3] = 3.0 mg/kg/d subcutaneously once daily

| SMILES | % inhibition of atrophy medial gastrocnemius muscle [1] | % inhibition of atrophy tibialis anterior muscle [1] | % inhibition of atrophy medial gastrocnemius muscle [2] | % inhibition of atrophy tibialis anterior muscle [2] | % inhibition of atrophy medial gastrocnemius muscle [3] | % inhibition of atrophy tibialis anterior muscle [3] |
| --- | --- | --- | --- | --- | --- | --- |
| CC#CCC(C)[C@H](O)/C=C/[C@@H]1[C@H]2c3cccc(CCCC(=O)O)c3O[C@H]2C[C@H]1O (mixture of isomers) [Beraprost] | 46* % | 28* % | 22% | 27* % | 28* % | 5% |
| CCCCC[C@H](O)/C=C/[C@@H]1[C@H]2C/C(=C/CCCC(=O)O)C[C@H]2C[C@H]1O [Carbaprostacyclin] | 1% | 0% | 24* % | 12% | 43* % | 8% |
| CCCCC[C@H](O)/C=C/[C@H]1[C@H](O)C[C@]2(C)C/C(=C\CCCC(=O)O)C[C@H]12 [Ciprostene] | 25* % | 5% | 20% | 9% | 43* % | 25* % |
| CC#CCC(C)[C@H](O)/C=C/[C@@H]1[C@H]2C/C(=C/CCCC(=O)O)C[C@H]2C[C@H]1O (stereo partly drawn) [Iloprost] | 42* % | 18% | 36* % | 21* % | 31* % | 11% |

Reference: patent US20070015214A1, “Methods for identifying compounds for regulating muscle mass or function using prostanoid IP receptors” (The Procter & Gamble Company, priority 2005, published 2007)
